{"source": "patent US11167006B2", "about": "(Shanghai Tianci Life Science Development Co., Ltd., priority 2016, dated 2021)", "key": {"[1]": {"tested_on": "acute pain caused by photothermal therapy in male mice of Kunming strain", "assay": "Mouse photothermal tail flick analgesia experiment", "format": "in vivo", "experimental": "After the drug was injected into the lateral ventricle, intrathecal, subcutaneous, and intraperitoneal, the modulating activity on pain was measured by the photothermal tail flick test in mouse.\nIn the lateral ventricle administration, the lateral ventricle tube-buried surgery of the mouse should be performed in advance to ensure the accuracy of the drug injection site. A brain stereotaxic instrument was used in the lateral ventricle tube-buried surgery of the mouse. Male mice of Kunming strain, weighing 21±2 g; brain stereotaxic instrument is Jiangwan I. After the mice were anesthetized with sodium pentobarbital (i.p., 80 mg/kg mouse body weight), the hair in the head surgery area of the mouse was cut off and the mouse was placed on the brain stereotactic instrument and fixed. The surgery area was disinfected with iodophor, the scalp was opened along the sagittal suture to reveal the skull and the position of the anterior fontanelle can be found. 3 mm backward and 1 mm left/right from the anterior fontanelle, the upper position of the lateral ventricle can be found. A self-made stainless steel tube (a section of 24-gauge, which is connected to a small section of PE-10 tube) is inserted 3 mm downward according to the above position, which is the lateral ventricle. A section of stainless steel string (28-gauge) is inserted into the above-mentioned steel tube to prevent cerebrospinal fluid spillage and foreign matter infection and block the steel pipe. The steel tube is fixed with medical dental powder and glue, and after solidification, the wound is sutured. After the surgery, the mice were recovered tier 4 days, and the follow-up experiment was started on the 5th day. Surgical instruments, stainless steel tubes, etc. involved in the experiment need to be disinfected before the surgery. The mouse lateral ventricle was injected with 4 μl of the drug each time, and then the steel tube was rinsed with 1 μl of physiological saline.\nSpinal cord level administration is performed by intrathecal injection in conscious mice, and the specific procedure is described in the method reported by Hylden and Wilcox (Eur. J. Pharmacol. 1980, 67: 313). A 25 μL microinjector was inserted directly into the subarachnoid space between L5 and L6.\nThe intraperitoneal administration was directly injected using a 1 mL syringe at an injection volume of 10 μl/g body weight. At the time of injection, the mouse was held by left hand with their abdomen facing up and the head was at low position while the tail was at high position. The side of the midline of the abdomen was taken, the needle hole of the syringe was upward, the needle tip penetrates into the skin in a direction less than 20 degrees, the needle tip was slightly pushed in the direction of the mouse head and sticking abdominal wall, and then punctures into the abdominal cavity in the direction of 45 degrees, and was withdrawn to confirm that it has not been pierced into the blood vessel or the intestine, afterwards the drug solution is slowly pushed out.\nSubcutaneous injection was also administered directly using a 1 mL syringe in an injection volume of 10 μl/g body weight. At the time of injection, the neck and tail of the mouse were fixed in the left hand, and the head and body were inclined downward at 45 degrees. The needle hole of the syringe is upward, the needle tip is slowly pierced into the skin on the right side of the back center line at an angle of less than 20 degrees, and the needle tip is lightly picked up to confirm that there is no piercing, afterwards the drug solution is slowly pushed out.\nMale mice of Kunming strain were used to detect the effects of drugs on pain perception using a photothermal tail flick instrument. The ambient temperature is controlled at 22±1° C., and the experimental animals are free to eat and drink. The basic tail flick incubation period (3-5 seconds) was determined prior to administration, and mice that were too sensitive or dull were discarded. […]"}, "[2]": {"tested_on": "blood pressure of Wistar male rats", "assay": "Blood pressure in anesthetized rats", "format": "in vivo", "details": "rat, intrathecal; doses 1, 3, 10, 30 nmol", "description": "Wistar male rats weighing 200-250 g. After urethane (1.3 g/kg) anesthesia, the trachea was cut to prevent suffocation. The femoral was isolated and a PE-10 artery cannula was inserted in an insertion depth of approximately 2 cm. The arterial cannula was connected to a pressure transducer PT-100, and the PT-100 was connected to a biofunctional experiment BL-420F system to record mean arterial pressure and pulsatile arterial pressure. An additional PE-10 was inserted from the lumbar vertebra L4-L5 and inserted 3 cm along the subarachnoid space up to the spine T12-L1 for intrathecal administration. After the surgery, the rats were allowed to stabilize for 30 min. Then, intrathecal administration of physiological saline or different doses of the drug, the dose of the drug was from small to large, and each dose interval was more than 40 min. Changes in blood pressure of the rats after administration were recorded.\nThe experimental results of cardiovascular regulation in rats were expressed as changes in blood pressure, and the relevant data were expressed as mean±standard error (Means±S.E.M.), Differences between groups treated with different drug concentrations were analyzed by one-way ANOVA (Bonferroni test in one-way ANOVA) for data statistics and analysis."}, "[3]": {"tested_on": "movement activity of mice", "assay": "Movement activity, open field experiment", "format": "in vivo, mouse", "details": "subcutaneous 10 mg/kg", "experimental": "The movement activity of the mice was tested by open field experiments. The experimental device is consisted of a 50×50×50 cm topless black plexiglass box and a movement monitoring system. The experiment was carried out in a soundproof environment with an indoor temperature being controlled at 22±1° C. After the experiment was started, the mice were first recorded for free movement within 30 minutes, and then compound 9 or morphine was administered subcutaneously, the movement of the mice was detected for another 150 minutes. Before the experiment for each mouse was started, the whole box was wiped with alcohol as a whole to exclude the residual odor of the previous mouse from affecting the accuracy of the data.\nThe experimental data were expressed as mean±standard error (Means±S.E.M.), and the data for differences between groups treated with different drugs were analyzed by one-way ANOVA (Bonferroni test in one-way ANOVA) for statistics and analysis, ***P<0.001 represents that there was a significant difference between the movement activity of the drug-treated group and that of the saline group."}, "mice": {"tested_on": "mice", "assay": "Naloxone withdrawal test", "format": "in vivo, mouse", "details": "s.c. at 8 hours intervals 20, 40, 60, 80, 100, 100, 100 mg/kg; naloxone 1 mg/kg; 30 minutes"}}, "note": "Square brackets hold non-standard residues; d marks the D form. Peptide text beside a SMILES is read from it. NMeF = CN[C@@H](Cc1ccccc1)C(=O)O"}
{"smiles": "C[C@@H](NC(=O)[C@@H](N)Cc1ccc(O)cc1)C(=O)NCC(=O)N(C)[C@@H](Cc1ccccc1)C(=O)NCC(=O)N1CCC[C@H]1C(=O)N[C@@H](CCC(N)=O)C(=O)N[C@@H](CCCNC(=N)N)C(=O)N[C@@H](Cc1ccccc1)C(N)=O", "note": "[Compound 9, Tyr-D-Ala-Gly-NMe-Phe-Gly-Pro-Gln-Arg-Phe-NH2] (H-Y[dA]G[NMeF]GPQRF-NH2)", "values": [{"measurement": "analgesia ED50 value", "setting": "[1]; abdominal (intraperitoneal)", "result": 26.58, "unit": "mg/kg"}, {"measurement": "analgesic potency relative to BN-9", "setting": "[1]; intrathecal", "result": 218, "unit": "times"}, {"measurement": "analgesic ED50 value", "setting": "[1]; intrathecal administration", "result": 1.33, "unit": "pmol"}, {"measurement": "maximum analgesic MPE value", "setting": "[1]; intrathecal, 5 pmol", "result": 94.7, "unit": "%"}, {"measurement": "analgesic ED50 value", "setting": "[1]; lateral ventricle administration", "result": 16.3, "unit": "pmol"}, {"measurement": "ED50 value (nmol) (95% confidence interval), analgesic activity", "setting": "[1]; lateral ventricle injection", "result": "0.0163 (0.0145 to 0.0182) nmol"}, {"measurement": "analgesic potency relative to BN-9", "setting": "[1]; lateral ventricle, from ED50 values", "result": 23.9, "unit": "times"}, {"measurement": "analgesia ED50 value", "setting": "[1]; subcutaneous", "result": 0.2279, "unit": "mg/kg"}, {"measurement": "dose producing a significant blood pressure-lowering effect", "setting": "[2]", "result": "more than 1 nmol"}, {"measurement": "total distance of movement", "setting": "[3]", "result": 71.39, "unit": "m"}, {"measurement": "average number of jumps after naloxone withdrawal", "setting": "mice", "result": 11.63}]}
